System: SK-BR-3 cancer cells
Assay: Inhibitory activity against proliferation of SK-BR-3 cancer cells (CellTiter-Glo)
Type: cell-based
Settings: Homo sapiens, SK-BR-3, 120 h, ErbB2-overexpressing SK-BR-3 cells, 120 hours after treatment
Protocol: To evaluate the inhibitory activity of a compound according to the present invention against the proliferation of ErbB2-overexpressing cancer cells, the following experiment were performed.
10% FBS-added McCOY'S 5A was used for SK-BR-3 cancer cells. 20% FBS-added RPMI-1640 was used for BT-474 cancer cells. Transduced Ba/F3 cells were cultured in a RPMI-1640 medium to which 1 μg/ml puromycin (Invitrogen) was added.
48 hours before compound treatment, each type of the SK-BR-3 and BT-474 cells were seeded at 5,000 cells/well in a white clear bottom 96 well plate (Corning). The compound was diluted in dimethyl sulfoxide (SK-BR-3: 3-fold dilution, a total of 12 concentrations, BT-474: […], a total of 12 concentrations) and injected at 1 μl to have the final concentration of 0.2 nM to 5 μM. As for measurement of live cells, 120 hours after treatment with the compound, a CellTiter-Glo luminescent cell-viability reagent (Promega) was used to store the cells at room temperature for 10 minutes, followed by measurement of luminescence using a reader (SynergyNeo, Biotek). Each test was repeated three times.
The result values were calculated as a cell growth rate (%) compared to the control group. A graph was plotted using the GraphPad Prism version 8.3.0 program, and GI50 values were calculated.

| SMILES | GI50 [nM] |
| --- | --- |
| C=CC(=O)Nc1cc(Nc2cc(N3OCC[C@H]3c3cccc(-c4cccc(F)c4)c3F)ncn2)c(OC)cc1N1CCC(N2CCN(C3CC3)CC2)CC1 [Example 251, (S)-N-(2-(4-(4-cyclopropylpiper-azin-1-yl)piper-idin-1-yl)-5-((6-(3-(2,3′-difluoro-[1,1′-biphenyl]-3-yl)-isoxazolidin-2-yl)-pyrimidin-4-yl)-amino)-4-methoxy-phenyl)acrylamide] | 500 to 5000 |
| C=CC(=O)Nc1cc(Nc2cc(N3OCC[C@@H]3c3cccc(-c4cccc(F)c4)c3F)ncn2)c(OC)cc1N1CCC(N2CCN(C3CC3)CC2)CC1 [Example 252, (R)-N-(2-(4-(4-cyclopropylpiper-azin-1-yl)piper-idin-1-yl)-5-((6-(3-(2,3′-difluoro-[1,1′-biphenyl]-3-yl)isoxazolidin-2-yl)pyrimidin-4-yl)-amino)-4-methoxy-phenyl)acrylamide] | < 50 |
| C=CC(=O)Nc1cc(Nc2cc(N3OCC[C@@H]3c3cccc(C(=O)NC4CCCCC4)c3)ncn2)c(OC)cc1N1CCC(N2CCN(C3CC3)CC2)CC1 [Example 254, (R)-3-(2-(6-((5-acrylamido-4-(4-(4-cyclopropyl-piperazin-1-yl)-piperidin-1-yl)-2-methoxyphenyl)-amino)pyrimidin-4-yl)isoxazolidin-3-yl)-N-cyclohex-ylbenzamide] | < 50 |
| COc1cc(F)c(NC(=O)/C=C/CN(C)C)cc1Nc1cc(N2OCC[C@@H]2c2ccc(F)c(OCc3cccc(F)c3)c2)ncn1 [Example 255, (R,E)-4-(dimethyl-amino)-N-(2-fluoro-5-((6-(3-(4-fluoro-3-((3-fluorobenzyl)oxy)-phenyl)isoxazol-idin-2-yl)pyrim-idin-4-yl)amino)-4-methoxyphen-yl)but-2-enamide] | 50 to 500 |
| C=CC(=O)Nc1cc(Nc2cc(N3OCC[C@@H]3c3ccc(C)c(OCc4cccc(F)c4)c3)ncn2)c(OC)cc1N1CCN(C)CC1 [Example 256, (R)-N-(5-((6-(3-(3-((3-fluorobenz-yl)oxy)-4-methyl-phenyl)isoxazol-idin-2-yl)pyrim-idin-4-yl)amino)-4-methoxy-2-(4-methylpiperazin-1-yl)phenyl)-acrylamide] | 50 to 500 |
| C=CC(=O)Nc1cc(Nc2cc(N3OCC[C@@H]3c3ccc(C)c(OCc4cccc(F)c4)c3)ncn2)c(OC)cc1N(C)CCN(C)C [Example 257, (R)-N-(2-((2-(dimethylamino)-ethyl)(methyl)-amino)-5-((6-(3-(3-((3-fluorobenz-yl)oxy)-4-methyl-phenyl)isoxazol-idin-2-yl)pyrim-idin-4-yl)amino)-4-methoxyphen-yl)acrylamide] | < 50 |
| C=CC(=O)Nc1cc(Nc2cc(N3OCC[C@@H]3c3ccc(C)c(OCc4cccc(F)c4)c3)ncn2)c(OC)cc1F [Example 258, (R)-N-(2-fluoro-5-((6-(3-(3-((3-fluorobenzyl)oxy)-4-methylphenyl)-isoxazolidin-2-yl)-pyrimidin-4-yl)-amino)-4-methoxy-phenyl)acrylamide] | 500 to 5000 |
| C=CC(=O)Nc1cc(Nc2cc(N3OCC[C@@H]3c3ccc(F)c(Oc4cccc(C(F)(F)F)c4)c3)ncn2)c(OC)cc1N1CCN(C)CC1 [Example 259, (R)-N-(5-((6-(3-(4-fluoro-3-(3-(trifluoromethyl)-phenoxy)phenyl)-isoxazolidin-2-yl)-pyrimidin-4-yl)-amino)-4-meth-oxy-2-(4-methyl-piperazin-1-yl)-phenyl)acrylamide] | 50 to 500 |
| C=CC(=O)Nc1cc(Nc2cc(N3OCC[C@@H]3c3ccc(F)c(Oc4cccc(C(F)(F)F)c4)c3)ncn2)c(OC)cc1N(C)CCN(C)C [Example 260, (R)-N-(2-((2-(dimethylamino)-ethyl)(methyl)-amino)-5-((6-(3-(4-fluoro-3-(3-(trifluoromethyl)-phenoxy)phenyl)-isoxazolidin-2-yl)-pyrimidin-4-yl)-amino)-4-methoxy-phenyl)acrylamide] | 50 to 500 |
| C=CC(=O)Nc1cc(Nc2cc(N3OCCC3c3cccc(-c4cccc(F)c4)c3)ncn2)c(OC)cc1N(C)CCN(C)C (stereo not shown) [Example 261, N-(2-((2-(dimeth-ylamino)ethyl)-(methyl)amino)-5-((6-(3-(3′-fluoro-[1,1′-biphenyl]-3-yl)isoxazolidin-2-yl)pyrimidin-4-yl)-amino)-4-methoxy-phenyl)acrylamide] | < 50 |
| C=CC(=O)Nc1cc(Nc2cc(N3OCC[C@@H]3c3cccc(-c4cnc5ccnn5c4)c3)ncn2)c(OC)cc1N1CCN(C)CC1 [Example 262, (R)-N-(4-methoxy-2-(4-methylpiper-azin-1-yl)-5-((6-(3-(3-(pyrazolo[1,5-a]pyrimidin-6-yl)-phenyl)isoxazol-idin-2-yl)pyrim-idin-4-yl)amino)-phenyl)acrylamide] | < 50 |
| C=CC(=O)Nc1cc(Nc2cc(N3OCC[C@@H]3c3cccc(-c4cnc5ccnn5c4)c3)ncn2)c(OC)cc1N(C)CCN(C)C [Example 263, (R)-N-(2-((2-(dimethylamino)-ethyl)(methyl)-amino)-4-methoxy-5-((6-(3-(3-(pyr-azolo[1,5-a]pyrim-idin-6-yl)phenyl)-isoxazolidin-2-yl)-pyrimidin-4-yl)-amino)phenyl)-acrylamide] | < 50 |
| C=CC(=O)Nc1cc(Nc2cc(N3OCC[C@@H]3c3cccc(-c4cnc5ccnn5c4)c3)ncn2)c(OC)cc1N1CCOCC1 [Example 264, (R)-N-(4-methoxy-2-morpholino-5-((6-(3-(3-(pyraz-olo[1,5-a]pyrim-idin-6-yl)phenyl)-isoxazolidin-2-yl)-pyrimidin-4-yl)-amino)phenyl)-acrylamide] | < 50 |
| C=CC(=O)Nc1cc(Nc2cc(N3OCC[C@@H]3c3cccc(-c4ccc5ncnn5c4)c3)ncn2)c(OC)cc1N1CCN(C)CC1 [Example 266, (R)-N-(5-((6-(3-(3-([1,2,4]triazolo-[1,5-a]pyridin-6-yl)phenyl)isoxazol-idin-2-yl)pyrim-idin-4-yl)amino)-4-methoxy-2-(4-methylpiperazin-1-yl)phenyl)acryl-amide] | < 50 |
| C=CC(=O)Nc1cc(Nc2cc(N3OCCC3c3cccc(-c4cc(F)cc(F)c4)c3)ncn2)c(OC)cc1N1CCN(C)CC1 (stereo not shown) [Example 267, N-(5-((6-(3-(3′,5′-difluoro-[1,1′-biphenyl]-3-yl)-isoxazolidin-2-yl)-pyrimidin-4-yl)-amino)-4-methoxy-2-(4-methylpiper-azin-1-yl)phenyl)-acrylamide] | < 50 |
| C=CC(=O)Nc1cc(Nc2cc(N3OCC[C@@H]3c3cccc(-c4ccn5ncnc5c4)c3)ncn2)c(OC)cc1N1CCN(C)CC1 [Example 268, (R)-N-(5-((6-(3-(3-([1,2,4]triazolo-[1,5-a]pyridin-7-yl)phenyl)isoxazol-idin-2-yl)pyrim-idin-4-yl)amino)-4-methoxy-2-(4-methylpiperazin-1-yl)phenyl)-acrylamide] | < 50 |
| C=CC(=O)Nc1cc(Nc2cc(N3OCC[C@@H]3c3cccc(-c4cc(F)cc(F)c4)c3)ncn2)c(OC)cc1N1CCC(N2CCN(C3CC3)CC2)CC1 [Example 269, (R)-N-(2-(4-(4-cyclopropylpiper-azin-1-yl)piper-idin-1-yl)-5-((6-(3-(3′,5′-difluoro-[1,1′-biphenyl]-3-yl)isoxazolidin-2-yl)pyrimidin-4-yl)-amino)-4-methoxy-phenyl)acrylamide] | < 50 |
| C=CC(=O)Nc1cc(Nc2cc(N3OCC[C@@H]3c3cccc(-c4cc(F)cc(F)c4)c3)ncn2)c(OC)cc1N1CCO[C@H](C)C1 [Example 270, N-(5-((6-((R)-3-(3′,5′-difluoro-[1,1′-biphenyl]-3-yl)-isoxazolidin-2-yl)-pyrimidin-4-yl)-amino)-4-methoxy-2-((R)-2-methyl-morpholino)phen-yl)acrylamide] | < 50 |
| C=CCN1CCN(c2cc(OC)c(Nc3cc(N4OCC[C@@H]4c4cccc(-c5cc(F)cc(F)c5)c4)ncn3)cc2NC(=O)C=C)CC1 [Example 271, (R)-N-(2-(4-allyl-piperazin-1-yl)-5-((6-(3-(3′,5′-difluoro-[1,1′-biphen-yl]-3-yl)-isoxazolidin-2-yl)-pyrimidin-4-yl)-amino)-4-methoxy-phenyl)acrylamide] | < 50 |
| C=CC(=O)Nc1cc(Nc2cc(N3OCC[C@@H]3c3cccc(-c4cc(F)cc(F)c4)c3)ncn2)c(OC)cc1N1CCC(N2CCOCC2)CC1 [Example 272, (R)-N-(5-((6-(3-(3′,5′-difluoro-[1,1′-biphenyl]-3-yl)-isoxazolidin-2-yl)-pyrimidin-4-yl)-amino)-4-methoxy-2-(4-morpholino-piperidin-1-yl)-phenyl)acrylamide] | < 50 |
| C=CC(=O)Nc1cc(Nc2cc(N3OCC[C@@H]3c3cccc(-c4cc(F)cc(F)c4)c3)ncn2)c(OC)cc1N(C)CCN(C)C [Example 277, (R)-N-(5-((6-(3-(3′,5′-difluoro-[1,1′-biphenyl]-3-yl)-isoxazolidin-2-yl)-pyrimidin-4-yl)-amino)-2-((2-(dimethylamino)-ethyl)(methyl)-amino)-4-methoxy-phenyl)acrylamide] | < 50 |
| C=CC(=O)Nc1cc(Nc2cc(N3OCC[C@@H]3c3cccc(-c4cccc(F)c4)c3)ncn2)c(OC)cc1N1CCNC2(CC2)C1 [Example 291, (R)-N-(5-((6-(3-(3′-fluoro-[1,1′-biphenyl]-3-yl)-isoxazolidin-2-yl)-pyrimidin-4-yl)-amino)-4-methoxy-2-(4,7-diazaspiro-[2.5]octan-7-yl)-phenyl)acrylamide] | < 50 |
